# Measurements reported in patent publication EP1005865A1, “A anti-allergy anti-inflammatory composition comprising nimesulide and cetirizine” (priority 1998, dated 2000).
# Where a name gives a salt, the structure may show the parent alone.
# Experiments:
# [1] = test system: chronic hives patients; conditions: daily regimen of 10mg of cetirizine; cited from earlier work
# [2] = test system: Histamine induced bronchoconstrictor in guinea pigs; experiment: Histamine-induced bronchospasm in anaesthetised, ventilated guinea pig (insufflation pressure); conditions: for Histamine Challenge (% Insufflation pressure) 5 µg/kg: histamine 5 µg/kg iv, control 187.42 ± 22.49; for Histamine Challenge (% Insufflation pressure) 10 µg/kg: histamine 10 µg/kg iv, control 239.07 ± 43.64
# [3] = test system: Leukotriene D4 (LTD4) induced bronchoconstrictor in guinea pigs; experiment: Leukotriene D4-induced bronchospasm in guinea pig (insufflation pressure); conditions: for % Insufflation pressure after LTD4 1 µg/kg LTD4: control 186.02 ± 52.58; for % Insufflation pressure after LTD4 2 µg/kg LTD4: control 246.56 ± 14.33; for decrease in % insufflation pressure, LTD4-induced bronchoconstriction: matches the 1 µg/kg LTD4 column of Table 3
# [4] = test system: PDE IV; conditions: PDE IV inhibitor in vitro, reported; cited from earlier work
# [5] = test system: Antigen (egg albumin) induced bronchoconstrictor in guinea pigs; experiment: Egg albumin (antigen)-induced bronchospasm in sensitized guinea pig (insufflation pressure)
# Experimental: The animals were stabilized for 10 minutes.
# Cetirizine was dissolved in deionized water. […] Histamine and d-tubocurarine chloride were dissolved in saline and Leukotriene D4 was diluted with Methanol and Ammonium Acetate buffer in a ratio of 70 : 30 at a pH of 5.4.
# Guinea pigs were sensitized by injections of 100 mg of Egg albumin ip and 100 mg Egg albumin sc in saline. Guinea pigs were used after day 21st.
# [6] = cited from earlier work
# [7] = Cetrizine 1.16 mg/kg p.o 2 hours before challenge
# [8] = Cetrizine 1.16 mg/kg p.o 2 hours before challenge, n 1
# [9] = Nimesulide 11.66 mg/kg p.o 2 hours before challenge
# [10] = Nimesulide 23.32 mg/kg p.o 2 hours before challenge
smiles,measurement,setting,value
"O=C(O)COCCN1CCN(C(c2ccccc2)c2ccc(Cl)cc2)CC1 (centres unmarked) [Cetrizine, Cetirizine dihydrochloride]",chronic hives patients reporting excellent results,[1],~70%
same,"decrease in % insufflation pressure, histamine induced bronchoconstriction","[2]; Cetirizine 1.16 mg/kg p.o, matches the 5 µg/kg histamine column of Table 1",62.71%
same,Histamine Challenge (% Insufflation pressure) 5 µg/kg,[2]; [7],37.29 ± 6.76 %
same,Histamine Challenge (% Insufflation pressure) 10 µg/kg,[2]; [7],68.35 ± 18.20 %
same,effect on histamine induced increase in insufflation pressure,"[2]; histamine 5 and 10 µg/kg, Cetirizine 1.66 mg/kg (so in the source)",significantly reduced
same,% Insufflation pressure after LTD4 1 µg/kg LTD4,[3]; [8],57.14%
same,% Insufflation pressure after LTD4 2 µg/kg LTD4,[3]; [8],92.85%
same,effect on LTD4-induced contractions,[3]; Cetirizine 1.16 mg/kg,significantly blocked
same,"decrease in % insufflation pressure, LTD4-induced bronchoconstriction",[3]; Cetirizine 1.16 mg/kg p.o,42.86%
CS(=O)(=O)Nc1ccc([N+](=O)[O-])cc1Oc1ccccc1 [Nimesulide],IC50,[4],~40 µM
same,"decrease in % insufflation pressure, egg albumin induced bronchoconstriction","[5]; Nimesulide 11.66 mg/kg p.o, matches the 1 mg/kg egg albumin column of Table 2",90.24%
same,effect on egg albumin induced insufflation pressure,"[5]; egg albumin 1 mg/kg, 2 mg/kg, Nimesulide 11.66 mg/kg",significantly reduced
same,% Insufflation pressure after egg albumin challange 1 mg/kg,"[5]; sensitized guinea pigs, egg albumin 1 mg/kg, Nimesulide 11.66 mg/kg p.o, control 111.88 ± 10.53",9.76 ± 4.17 %
same,% Insufflation pressure after egg albumin challange 2 mg/kg,"[5]; sensitized guinea pigs, egg albumin 2 mg/kg, Nimesulide 11.66 mg/kg p.o, control 196.90 ± 32.98",19.39 ± 4.32 %
same,effect on histamine induced increase in insufflation pressure,"[2]; Nimesulide single dose, S, 11.66 mg/kg and double dose, D, 23.32 mg/kg",no significant inhibitory effect
same,"antihistaminic effect, histamine induced bronchoconstriction","[2]; Nimesulide, dose not given",no antihistaminic effect
same,Histamine Challenge (% Insufflation pressure) 5 µg/kg,[2]; [9],171.07 ± 23.76%
same,Histamine Challenge (% Insufflation pressure) 5 µg/kg,[2]; [10],163.15 ± 43.27%
same,Histamine Challenge (% Insufflation pressure) 10 µg/kg,[2]; [9],236.47 ± 40.40%
same,Histamine Challenge (% Insufflation pressure) 10 µg/kg,[2]; [10],205.10 ± 31.33%
same,% Insufflation pressure after LTD4 1 µg/kg LTD4,[3]; [9],192.45 ± 45.53%
same,% Insufflation pressure after LTD4 1 µg/kg LTD4,[3]; [10],38.99 ± 19.79 %
same,% Insufflation pressure after LTD4 2 µg/kg LTD4,[3]; [9],197.02 ± 37.76%
same,% Insufflation pressure after LTD4 2 µg/kg LTD4,[3]; [10],140.07 ± 61.15 %
same,"effect on insufflation pressure, LTD4-induced contractions",[3]; Nimesulide 11.66 mg/kg,no effect
same,"decrease in % insufflation pressure, LTD4-induced bronchoconstriction",[3]; Nimesulide 23.32 mg/kg p.o,61.0%
same,effect on LTD4-induced contractions,[3]; double dose Nimesulide 23.32 mg/kg,potent inhibitory effect
O=C(O)c1cc(=O)c2c(OCC(O)COc3cccc4oc(C(=O)O)cc(=O)c34)cccc2o1 [cromolyn sodium],half-life,"[6]; inhaled, taken 4 times daily",45 to 100 min
same,fraction of an oral dose absorbed,[6]; oral dose,about 1%
